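Exposure lasted 48 hours, with cells grown in 96-well plates and compounds tested at five concentrations. GI50: concentration for 50% inhibition of growth. TGI is the concentration that stops growth completely.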
What was measured:
Assay in all cases: DTP human tumour cell line panel, 48 h
CAKI-1 renal = tested on: CAKI-1 renal
A549 NSCLC = tested on: A549 NSCLC
K-562 leukemia = tested on: K-562 leukemia
MDA-MB-231 breast = tested on: MDA-MB-231 breast
OVCAR-4 ovarian = tested on: OVCAR-4 ovarian
SNB-75 CNS = tested on: SNB-75 CNS
NCI-H522 lung = tested on: NCI-H522 lung
SK-MEL-5 melanoma = tested on: SK-MEL-5 melanoma
UO-31 renal = tested on: UO-31 renal
MDA-MB-435 = tested on: MDA-MB-435

| SMILES | GI50 (CAKI-1 renal) [µM] | TGI (CAKI-1 renal) [µM] | GI50 (A549 NSCLC) [µM] | TGI (A549 NSCLC) [µM] | GI50 (K-562 leukemia) [µM] | TGI (K-562 leukemia) [µM] | GI50 (MDA-MB-231 breast) [µM] | TGI (MDA-MB-231 breast) [µM] | GI50 (OVCAR-4 ovarian) [µM] | TGI (OVCAR-4 ovarian) [µM] | TGI (SNB-75 CNS) [µM] | TGI (NCI-H522 lung) [µM] | TGI (SK-MEL-5 melanoma) [µM] | TGI (UO-31 renal) [µM] | TGI (MDA-MB-435) [µM] |
| --- | --- | --- | --- | --- | --- | --- | --- | --- | --- | --- | --- | --- | --- | --- | --- |
| COc1ccc(Nc2ccnc3cc(Cl)ccc23)cc1CN(CCCl)CCCl | 0.262 | 0.933 | 1.69 | > 28.5 | 1.53 | > 22.7 | 2.45 | 15.9 | 1.74 | 5.19 | – | – | – | – | – |
| CC1CC2OC(=N)C1(C#N)C2(C#N)C#N (stereo unspecified) | – | 20.5 | – | > 100 | – | 56.2 | – | 38.4 | – | – | 43.1 | 37.8 | 22.2 | 93 | > 100 |
| C/C(=N\Nc1nc2ccccc2n1C)c1ccncn1 | – | > 75 | – | > 32 | – | > 100 | – | > 76.6 | – | > 100 | > 70.9 | > 31.4 | 11.6 | 22.9 | – |
| COC1OC2COC(c3ccccc3)OC2C(OC(=S)c2ccccc2)C1O (stereo unspecified) | – | > 100 | – | 33.7 | – | > 100 | – | 78.1 | – | > 100 | – | – | > 100 | > 100 | 22.8 |
| COc1ccc(Cn2nc(OCc3ccccc3)c3cc([N+](=O)[O-])ccc32)cc1 | – | – | – | > 100 | – | > 100 | – | > 100 | – | – | > 100 | > 100 | > 100 | – | > 100 |
| Nc1nn2cc(-c3ccccc3)[n+](CC(=O)c3ccccc3)c2s1 | – | > 100 | – | > 100 | – | 66.7 | – | > 100 | – | – | – | 26.1 | 73.8 | > 100 | > 100 |
| Cc1cccc(-c2cc(=O)c3cc(C)cnc3[nH]2)c1 | – | > 100 | – | > 100 | – | > 33.3 | – | – | – | > 100 | > 100 | 0.259 | 21 | > 100 | – |
| COc1cc(OC)cc(-c2nc3ccccc3c(=O)[nH]2)c1 | – | > 100 | – | > 100 | – | > 100 | – | > 100 | – | > 100 | 58.3 | – | > 100 | > 100 | > 100 |
| CCOC(=O)N1c2c(c3ccccc3n2C(=O)OCC)C(=O)C(OC)N1C(=O)OCC (stereo unspecified) | – | 93.9 | – | > 100 | – | > 100 | – | 83.6 | – | > 100 | – | 41.2 | 60.7 | > 100 | > 100 |
| O=S1(=O)OCCOS(=O)(=O)C1S(=O)(=O)c1cccc2ccccc12 | – | > 100 | – | > 100 | – | > 100 | – | > 100 | – | > 100 | – | – | > 100 | > 100 | > 100 |
| C[S+](C)C1(c2ccccc2)C(=O)c2ccccc2C1=O | – | > 100 | – | 97.7 | – | > 100 | – | – | – | > 100 | > 89.2 | > 68.7 | > 53.5 | > 56.5 | > 100 |
| O=C(c1cccs1)N(C(=O)N1CCCCC1)c1ccccc1 | – | > 100 | – | – | – | > 100 | – | > 100 | – | – | 88.7 | – | > 100 | > 100 | > 100 |

From PubChem BioAssay (NCI)
